Test results: patent publication US8309058B2, “Method for obtaining highly luminescent lanthanide complexes” (Commissariat a l'Energie Atomique, priority 2005, dated 2012)
Read-outs that look alike come from different tables or passages of the source.

Columns and labels:
[1] = cited from earlier work
[2] = potentiometric titration: stability of the Ca(II) complex; type: physicochemical
Procedure: (§1) The solutions of Ca(II) could be prepared by dissolution of CaCI2 in water. The exact concentration of the ion Ca^2+ can be determined by colorimetric titration at a pH 12.5 using as a reference a solution of […] calgonite as an indicator. 20 mL of a solution of […] (3,10-^4 M), acidified (pH 2.5) 1:1 Ln:mixture of ligands ([L] 3.10-^4 M), acidified (pH 2.5) 1:1 Ca:mixture of ligands ([L] 7.10-^5M) are titrated in a cell with a thermostat (25.0° C.+/-0.1° C.) under Argon after addition of a solution of KOH 0.1 M. The ionic load was determined with KCl (μ=00.1 M). The titrations have been conducted with a Metrohm 751 GPD Titrino potentiometer fitted with a glass pH electrode. The electrode system was calibrated before each measurement. The electromotive load is given by the equation E=E°+sp[H^+] wherein E° and s are determined by titration of a known amount de HCl with 0.1 M KOH at μ=0.1 M (KCl), using the zone of the acid for the titration. […] More than 50 data points have been collected for each experiment.

[3] = cited from earlier work; remark: listed apart in the source
[4] = stability of the Gd complex (pGd); type: physicochemical; settings: pH 7.4, [M]total=1 μM, [ligand]total=10 μM
[5] = potentiometric titration: stability of the Eu(III) complex; type: physicochemical
Description: as §1, with “For potentiometric titration, the solutions of the complex of Eu(III) may be prepared by dissolution of a determined amount of EuCI3.6H2O in water. […] The exact concentration of the ion Eu^3+ could be determined by colorimetric titration in an acetate buffer (pH=4.5), using as a reference a solution of […] orange xylenol as an indicator. The solutions” for “The solutions”

[6] = absorption / excitation spectra; type: physicochemical
Description: (full line) and [Tb(tpaen)] (dotted line) after excitation of the ligand at 274 nm.
An efficient energy transfer from the ligand to the metal is put forward by the resemblance between the excitation and absorption spectra of the Europium and Terbium complexes.

[7] = potentiometric titration: de-protonation constants of the ligand; type: physicochemical; settings: 25.0° C., μ=0.1 M KCl, listed as H6tpaen
Description: Besides, five de-protonation constants [pKa1=2.8 (1), pKa22=3.2 (1), pKa3=3.9 (2), pKa4=5.1 (1) and pKa5=7.8 (1)] may be determined for the ligand H6tpaen by potentiometric titration as well the stability constants of the corresponding complexes of Eu^III and of CaII [log βEuL=15.3(3) for the complex of Eu^III and log βCaL=8.5 (5)].
For potentiometric titration, the solutions of the complex of Eu(III) may be prepared by dissolution of a determined amount of EuCI3.6H2O in water. The de-protonation constants of H6tpaen are given by Kai=[H6-iL]^2-1/[H5−iL]^1-i[H]^+, and as already mentioned previously, the values obtained are pKa1=2.8(1), pKa2=3.2(1), pKa3=3.9(2), pKa44=5.1(1) and pKa5=7.8(1).
The solutions of Ca(II) could be prepared by dissolution of CaCI2 in water. The exact concentration of the ion Ca^2+ can be determined by colorimetric titration at a pH 12.5 using as a reference a solution of H2Na2edta and calgonite as an indicator. 20 mL of a solution of H4tpaen (3,10−^4 M), acidified (pH˜2.5) 1:1 Ln:mixture of ligands ([L] 3.10−^4 M), acidified (pH˜2.5) 1:1 Ca:mixture of ligands ([L] 7.10−^5M) are titrated in a cell with a thermostat (25.0° C.+/−0.1° C.) under Argon after addition of a solution of KOH 0.1 M.
The ionic load was determined with KCl (μ=00.1 M). The titrations have been conducted with a Metrohm 751 GPD Titrino potentiometer fitted with a glass pH electrode. The electrode system was calibrated before each measurement.
The electromotive load is given by the equation E=E°+sp[H^+] wherein E° and s are determined by titration of a known amount de HCl with 0.1 M KOH at μ=0.1 M (KCl), using the zone of the acid for the titration. The value used for the ionic product of water was pKw=13.77. More than 50 data points have been collected for each experiment.

[8] = pH 7.4, [M]total=1 μM, [ligand]total=10 μM

cresyl violet
Qabs of the standard ([1]; methanol): 54%

O=C([O-])c1cccc(CN(CCN(Cc2cccc(C(=O)O)n2)Cc2cccc(C(=O)O)n2)Cc2cccc(C(=O)[O-])n2)n1.[Ca+2] [Catpaen]
stability constant log βCaL ([2]; potentiometric titration, 25.0° C., μ=0.1 M KCl): 8.5 (5)

O=C(O)CN(CCN(CC(=O)O)CC(=O)O)CC(=O)O [EDTA, tetra acetic diamine ethylene acid]
pEu, comparison value for EDTA [3]: 14.0

O=C(O)c1ccccc1C1=c2cc3c4c(c2Oc2c1cc1c5c2CCCN5CCC1)CCC[N+]=4CCC3.[Cl-] [rhodamine 101]
Qabs of the standard ([1]; ethanol): 100%

O=C(O)c1cccc(CN(CCN(Cc2cccc(C(=O)O)n2)Cc2cccc(C(=O)O)n2)Cc2cccc(C(=O)O)n2)n1 [tpaen, N,N,N′,N′-tetrakis[(6-carboxypyridine-2-yle)methyl]-ethylene diamine]
pCa (−log [M]free) [2, 8]: 8.5 | pGd (−log [M]free) [4]: 15.0 | selectivity for Europium with respect to calcium ([5]; from pEu versus pCa): good selectivity regarding Europium with respect to calcium | pEu (−log [M]free) [5, 8]: 15.7 | λexc [6]: 270 nm | ε ([6]; at λexc): 15800 M⁻¹ cm⁻¹ | de-protonation constant pKa1 [7]: 2.8 (1) | de-protonation constant pKa2 [7]: 3.2 (1) | de-protonation constant pKa3 [7]: 3.9 (2) | de-protonation constant pKa4 [7]: 5.1 (1) | de-protonation constant pKa5 [7]: 7.8 (1)
